Paper PMC9232612, “A phase 1b randomised controlled trial of a glucagon-like peptide-1 and glucagon receptor dual agonist IBI362 (LY3305677) in Chinese patients with type 2 diabetes” (Nature Communications, 2022)
Where “and” joins values, the source holds several entries; their conditions need not be identical. Equal entries are not always repeated.

Key:
[1] = system: Chinese patients with T2D; assay: Glycated haemoglobin A1c (HbA1c); type: in vivo, human; conditions: for Change from baseline to week 12 in HbA1c, single patients / HbA1c at week 12, single patients: each line a single patient; for Change from baseline in HbA1c, LS mean / Change from baseline in HbA1c, LS mean (SE) / HbA1c: ETD versus placebo, LS mean (90% CI): MMRM
Experimental: (§1) HbA1c (2200101, Bio-Rad, USA), blood glucose (05168791190, Roche Diagnostics, Germany), insulin (12017547122, Roche Diagnostics, Germany), C peptide (03184897190, Roche Diagnostics, Germany), total GLP-1 (GLP-1 [7–36] amide and its metabolite, GLP-1 [9–36] amide, 10-1278-01, Mercodia AB, Sweden) and OXM (AL-139, AnshLabs, USA) tests were performed according to the manufactures’ instruction manuals in a central laboratory (KingMed Diagnostics, Guangzhou, China). HbA1c was measured using a Bio-rad D-100 Haemoglobin Testing System (Bio-rad). Blood glucose was measured using a Roche Cobas c702 analyser (Roche Diagnostics). Insulin and C peptide were measured using a Roche […] analyser (Roche Diagnostics). GLP-1 and OXM were measured using a Tecan Infinite M Plex microplate reader (TECAN).
(§2) Standard non-compartmental pharmacokinetics methods were used to analyze IBI362 plasma concentration data using Pkanalix 2020R1 (Lixoft, Antony, France). Secondary efficacy outcomes included change from baseline to week 12 in HbA1c, fasting plasma glucose (FPG), fasting insulin levels, change from baseline to week 12 in post-mixed-meal tolerance test (post-MTT) glucose, insulin, C peptide, GLP-1 and OXM levels, as well as seven-point self-measured blood glucose (SMBG) profile.
(§3) The analyses for change from baseline in HbA1c, FPG, post-MTT glucose AUC0–4 h and body weight were performed using the mixed-effect model for repeated measures (MMRM) with least-squares means and standard error provided. The MMRM included the corresponding baseline value, treatment, visit and treatment-by-visit as fixed effects and patient as a random effect. Mean change or mean percent change from baseline were analysed using a restricted maximum likelihood (REML)‐based repeated measures approach in combination with the Newton Raphson Algorithm. The fix effect of visit was fitted as a repeated effect and an unstructured covariance matrix was used. In case of non-converge, matrix like Variance Components and Compound Symmetry will be tested in a subsequent order until model‐convergence is achieved. The Kenward-Roger degree of freedom was used in estimating fixed effects. No missing data imputation was conducted. For HbA1c, FPG and body weight, point estimate of treatment difference versus placebo and 90% CI were provided for each IBI362 dose group and the dulaglutide group, with nominal p values.

[2] = system: Chinese patients with T2D; assay: Fasting plasma glucose (FPG); type: in vivo, human; conditions: week 4; 3.0 mg cohort, n=8; MMRM
Experimental: as §1, §2, §3

Compound: CC(C)C[C@H](NC(=O)[C@H](CC(C)C)NC(=O)[C@H](Cc1c[nH]c2ccccc12)NC(=O)[C@H](CCC(=O)O)NC(=O)[C@@H](NC(=O)[C@H](Cc1ccccc1)NC(=O)[C@H](CCC(=O)O)NC(=O)[C@H](CCCCNC(=O)COCCOCCNC(=O)COCCOCCNC(=O)CC[C@H](NC(=O)CCCCCCCCCCCCCCCCCCC(=O)O)C(=O)O)NC(=O)[C@H](C)NC(=O)[C@H](CCCCN)NC(=O)[C@H](CCCCN)NC(=O)[C@H](CCC(=O)O)NC(=O)[C@H](CC(=O)O)NC(=O)[C@H](CC(C)C)NC(=O)[C@H](Cc1ccc(O)cc1)NC(=O)[C@H](CCCCN)NC(=O)[C@H](CO)NC(=O)[C@H](Cc1ccc(O)cc1)NC(=O)[C@H](CC(=O)O)NC(=O)[C@H](CO)NC(=O)[C@@H](NC(=O)[C@H](Cc1ccccc1)NC(=O)[C@@H](NC(=O)CNC(=O)[C@H](CCC(N)=O)NC(=O)C(C)(C)NC(=O)[C@@H](N)Cc1c[nH]cn1)[C@@H](C)O)[C@@H](C)O)C(C)C)C(=O)N[C@@H](CCC(=O)O)C(=O)NCC(=O)NCC(=O)N1CCC[C@H]1C(=O)N[C@@H](CO)C(=O)N[C@@H](CO)C(=O)NCC(N)=O [IBI362]
- Percent of patients with change from baseline to week 12 in HbA1c <1.0% ([1]; 3.0 mg cohort, n=8): 0.0%
- Percent of patients with change from baseline to week 12 in HbA1c ≥1.0% and <1.5% ([1]; 3.0 mg cohort, n=8): 37.5%
- Percent of patients with change from baseline to week 12 in HbA1c ≥1.5% and <2.0% ([1]; 3.0 mg cohort, n=8): 25.0%
- Percent of patients with change from baseline to week 12 in HbA1c ≥2.0% ([1]; 3.0 mg cohort, n=8): 25.0%
- Percent of patients with change from baseline to week 12 in HbA1c <1.0% ([1]; 4.5 mg cohort, n=8): 0.0%
- Percent of patients with change from baseline to week 12 in HbA1c ≥1.0% and <1.5% ([1]; 4.5 mg cohort, n=8): 12.5%
- Percent of patients with change from baseline to week 12 in HbA1c ≥1.5% and <2.0% ([1]; 4.5 mg cohort, n=8): 25.0%
- Percent of patients with change from baseline to week 12 in HbA1c ≥2.0% ([1]; 4.5 mg cohort, n=8): 37.5%
- Percent of patients with change from baseline to week 12 in HbA1c <1.0% ([1]; 6.0 mg cohort, n=8): 25.0%
- Percent of patients with change from baseline to week 12 in HbA1c ≥1.0% and <1.5% ([1]; 6.0 mg cohort, n=8): 0.0%
- Percent of patients with change from baseline to week 12 in HbA1c ≥1.5% and <2.0% ([1]; 6.0 mg cohort, n=8): 37.5%
- Percent of patients with change from baseline to week 12 in HbA1c ≥2.0% ([1]; 6.0 mg cohort, n=8): 37.5%
- Percent of patients with change from baseline to week 12 in HbA1c <1.0% ([1]; all IBI362 cohorts, n=24): 8.3%
- Percent of patients with change from baseline to week 12 in HbA1c ≥1.0% and <1.5% ([1]; all IBI362 cohorts, n=24): 16.7%
- Percent of patients with change from baseline to week 12 in HbA1c ≥1.5% and <2.0% ([1]; all IBI362 cohorts, n=24): 29.2%
- Percent of patients with change from baseline to week 12 in HbA1c ≥2.0% ([1]; all IBI362 cohorts, n=24): 33.3%
- Change from baseline to week 12 in HbA1c, single patients ([1]; 3.0 mg cohort): -2.8% and -1.4% and -1.0% and -1.9% and -1.8% and -2.7% and -1.3%
- HbA1c at week 12, single patients ([1]; 3.0 mg cohort): 6.4% and 6.1% and 8.6% and 7.3% and 6.8% and 6.7% and 7.4%
- Change from baseline to week 12 in HbA1c, single patients ([1]; 4.5 mg cohort): -1.2% and -1.7% and -2.3% and -3.3% and -3.7%
- HbA1c at week 12, single patients ([1]; 4.5 mg cohort): 6.1% and 6.3% and 5.7% and 6.9% and 6.8% and 6.0%
- HbA1c at week 12, single patients ([1]; 6.0 mg cohort): 7.0% and 6.8% and 5.9% and 6.1% and 7.1% and 5.8% and 7.8%
- Change from baseline in HbA1c, LS mean ([1]; week 4, 3.0 mg cohort, n=8): -0.38%
- Change from baseline in HbA1c, LS mean ([1]; week 4, 4.5 mg cohort, n=8): -0.80%
- Change from baseline in HbA1c, LS mean ([1]; week 4, 6.0 mg cohort, n=8): -0.61%
- Change from baseline in HbA1c, LS mean ([1]; week 8, 3.0 mg cohort, n=8): -0.98%
- Change from baseline in HbA1c, LS mean ([1]; week 8, 4.5 mg cohort, n=8): -1.58%
- Change from baseline in HbA1c, LS mean ([1]; week 8, 6.0 mg cohort, n=8): -1.32%
- Change from baseline in HbA1c, LS mean (SE) ([1]; week 12, 3.0 mg cohort, n=8): -1.46%
- HbA1c: ETD versus placebo, LS mean (90% CI) ([1]; week 12, 3.0 mg cohort): −0.59%
- Change from baseline in HbA1c, LS mean (SE) ([1]; week 12, 4.5 mg cohort, n=8): -2.23%
- HbA1c: ETD versus placebo, LS mean (90% CI) ([1]; week 12, 4.5 mg cohort): −1.35%
- Change from baseline in HbA1c, LS mean (SE) ([1]; week 12, 6.0 mg cohort, n=8): -1.66%
- HbA1c: ETD versus placebo, LS mean (90% CI) ([1]; week 12, 6.0 mg cohort): −0.79%
- patients achieving HbA1c level of 6.5% or lower ([1]; week 12, all IBI362 cohorts): nine
- patients achieving ≥1.5% reductions in HbA1c from baseline ([1]; week 12, all IBI362 cohorts, n=24): 62.5%
- Change from baseline in fasting plasma glucose, LS mean [2]: -2.29 mmol/L
